Measured values as given in paper PMC4511751, “Rapid Expansion of Phenylthiocarbamide Non-Tasters among Japanese Macaques” (PLoS ONE, 2015).

Columns and labels:
MmTAS2R38WT-a = target: T1, MmTAS2R38WT-a (Macaca mulatta, UniProt F1T2U6); assay: calcium imaging, fluo-4, FlexStation, HEK293T with G-alpha16gust44; assay type: cell-based
T1 construct: gene tas2r38; full-length TAS2R38, N-terminal first 45 residues of rat ssr3 and C-terminal last 8 residues of bovine rhodopsin as tags, pEAK10, HEK293T, co-expressed with chimeric G-alpha16gust44
T1 sequence (F1T2U6 1-333): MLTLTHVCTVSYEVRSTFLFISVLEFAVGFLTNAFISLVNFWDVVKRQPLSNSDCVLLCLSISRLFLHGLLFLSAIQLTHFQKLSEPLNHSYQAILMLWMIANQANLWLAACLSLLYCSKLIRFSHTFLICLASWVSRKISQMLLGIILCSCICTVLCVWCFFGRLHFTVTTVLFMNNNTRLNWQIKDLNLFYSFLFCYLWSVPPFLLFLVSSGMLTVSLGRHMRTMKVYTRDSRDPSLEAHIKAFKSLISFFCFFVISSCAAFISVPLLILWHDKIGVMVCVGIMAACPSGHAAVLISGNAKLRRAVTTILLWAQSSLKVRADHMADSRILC

MfTAS2R38TR-K = target: T2, MfTAS2R38TR-K (Macaca fuscata, UniProt F1T2T8); conditions: truncated allele Mf-K; pH 7.4
T2 construct: gene tas2r38
T2 sequence (F1T2T8 1-237): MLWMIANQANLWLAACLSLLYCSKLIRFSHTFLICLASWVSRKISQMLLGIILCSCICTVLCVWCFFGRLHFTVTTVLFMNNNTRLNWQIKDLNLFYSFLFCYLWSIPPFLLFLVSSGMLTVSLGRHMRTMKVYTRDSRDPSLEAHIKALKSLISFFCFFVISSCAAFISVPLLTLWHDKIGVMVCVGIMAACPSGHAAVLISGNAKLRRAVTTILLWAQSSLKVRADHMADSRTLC

In the case of `NC(=S)Nc1ccccc1` [phenylthiocarbamide], the EC50 (MmTAS2R38WT-a) is reported as 560 nM and the “calcium imaging, fluo-4, FlexStation, HEK293T with G-alpha16gust44” value (MfTAS2R38TR-K) is reported as “failed to respond to PTC”.
